According to article PMC8918016 (ACS infectious diseases, 2021):
Where two headings read alike, the source gives them in different places.

Key:
E. coli (K12) = experiment: E. coli growth inhibition assay; format: cell-based, Escherichia coli; conditions: read-out: Ec IC50
M. tuberculosis H37Rv = experiment: M. tuberculosis growth inhibition assay; conditions: read-out: Mtb IC90; concentration that inhibits 90% of growth, OD600, 5 days; ± standard error
M. smegmatis = M. smegmatis growth inhibition assay; format: cell-based, Mycobacterium smegmatis; conditions: read-out: Ms IC50, OD600, 48 h, ± standard error
B. subtilis = B. subtilis growth inhibition assay; format: cell-based, Bacillus subtilis; conditions: read-out: Bs IC50
[1] = for Rabbit 1 concentration in lung tissue / Rabbit 2 concentration in lung tissue: in vivo; for amount formed on a per-site basis in lung tissue: lung concentration divided by number of equivalent adamantyl sites
human CYP2C19 = conditions: 30 min incubation with CYP2C19; cited from earlier work
[2] = rats; cited from earlier work
[3] = calculated, Pipeline Pilot program; cited from earlier work
human CYP2D6 = conditions: 30 min incubation with CYP2D6; cited from earlier work
[4] = dogs; cited from earlier work
[5] = growth inhibition, OD600, 12 h, ± standard error

SMILES	IC50 (E. coli (K12); [5])	IC90 (M. tuberculosis H37Rv)	IC50 (M. smegmatis)	IC50 (B. subtilis; [5])	Rabbit 1 concentration in lung tissue [1]	Rabbit 2 concentration in lung tissue [1]	IC50 (E. coli (K12); Escherichia coli, 12 h)	IC50 (B. subtilis; Bacillus subtilis, 12 h)	Rabbit 1 concentration in lung tissue ([1]; female, New Zealand White)	Rabbit 2 concentration in lung tissue ([1]; female, New Zealand White)	SQ109 remaining (human CYP2C19)	[14C-SQ109] half-life [2]	pKa (adamantylamine NH) [3]	pKa (geranylamine NH) [3]	SQ109 remaining (human CYP2D6)	[14C-SQ109] half-life [4]	amount formed on a per-site basis in lung tissue [1]
CC(C)=CCC/C(C)=C/C=O [Compound 13, geranial]	> 500 µM	> 25 µM	> 500 µM	> 500 µM	BLQ	BLQ											
NC1C2CC3CC(C2)CC1C3 (stereo not drawn) [Compound 18, 2-aminoadamantane]		> 25 µM					> 500 µM	> 500 µM	170(49) ng/g	270(27) ng/g							
CC(C)=CCC/C(C)=C/CNCCNC1C2CC3CC(C2)CC1C3 (stereo not drawn) [Compound 1, SQ109]		1 ± 0.05 µM					15 ± 0.26 µM	16 ± 0.14 µM	37000 (4600) ng/g	45000 (21000) ng/g	45%	> 5 h	12.7	5.63	0.8%	> 5 h	
CC(C)=CCC/C(C)=C/CNCCNC1C2CC3CC1CC(C2)C3O (stereo not drawn) [Compound 23, (1r,3r,5r,7r)-6-((2-(((E)-3,7-Dimethylocta-2,6-dien-1-yl)-amino)ethyl)amino)adamantan-2-ol]	52 ± 2.5 µM	> 25 µM	68 ± 2.5 µM	184 ± 4.5 µM	1200 (210) ng/g	3500 (1200) ng/g											6.8 µM
CC(C)=CCC/C(C)=C/CNCCN [Compound 20, geranylethylenediamine]	> 500 µM	> 25 µM	> 500 µM	> 500 µM	310(14) ng/g	330 (54) ng/g											
O=C1C2CC3CC(C2)CC1C3 [Compound 19, 2-adamantanone]		> 25 µM					> 500 µM	> 500 µM									
CC(C)=CCC/C(C)=C/C(=O)O [Compound 14, geranic acid]		> 25 µM			BLQ	BLQ	> 500 µM	> 500 µM									
C/C(=C\CNCCNC1C2CC3CC(C2)CC1C3)CCC(=O)C(C)C (stereo not drawn) [Compound 12, (E)-8-((2-(((1r,3r,5r,7r)-adamantan-2-yl)amino)-ethyl)amino)-2,6-dimethyloct-6-en-3-one]	57 ± 2.3 µM	17 ± 4.5 µM	22 ± 1.5 µM	176 ± 5.1 µM	91 (20) ng/g	220 (110) ng/g											
CC(C)=CCC/C(C)=C/C=NO [Compound 15a, geranial oxime]	> 500 µM	> 25 µM	> 500 µM	> 500 µM	BLQ	BLQ											
NCCNC1C2CC3CC(C2)CC1C3 (stereo not drawn) [Compound 7, N′-adamantylethylenediamine]	> 500 µM	> 25 µM	> 500 µM	> 500 µM	5500 (360) ng/g	7700 (2200) ng/g											
ON=C1C2CC3CC(C2)CC1C3 [Compound 16, adamantan-2-one oxime]		> 25 µM			BLQ	BLQ	> 500 µM	> 500 µM									
CC(C)=CCC/C(C)=C/CNCCNC1[C@H]2C[C@@H]3C[C@H](C2)C(O)[C@H]1C3 (stereo partly drawn) [Compound 24, (1R,3S,5S,7R)-4-((2-(((E)-3,7-Dimethylocta-2,6-dien-1-yl)-amino)ethyl)amino)adamantan-2-ol]		6.2 ± 0.27 µM					158 ± 4.5 µM	166 ± 0.5 µM	820 (170) ng/g	2100 (680) ng/g							~ 1 μM
C/C(=C\CC/C(C)=C/CNCCNC1C2CC3CC(C2)CC1C3)CO (stereo not drawn) [Compound 9, (2E,6E)-8-((2-(((1r,3r,5r,7r)-Adamantan-2-yl)amino)ethyl)-amino)-2,6-dimethylocta-2,6-dien-1-ol]	267 ± 4.3 µM	> 24 µM	55 ± 1.4 µM	> 500 µM	720 (47) ng/g	850 (190) ng/g											
CC(C)=CCC/C(C)=C/CN [Compound 17, geranylamine]	> 500 µM	> 25 µM	> 500 µM	> 500 µM	BLQ	BLQ											
